Earlier results in US20210324031A1, “COMPOUNDS, COMPOSITIONS, METHODS, AND USES FOR TREATING LEPTIN RESISTANCE, OBESITY, DIABETES MELLITUS AND METABOLIC SYNDROME” (priority 2019, published 2021).
Where a SMILES comes first, the peptide text is derived from it. [ ]: non-standard residue; d: D form. The star is where a group is joined. Dolaproine = CO[C@@H]([C@@H]1CCCN1)[C@@H](C)C(=O)O; Dil = CC[C@H](C)[C@H](NC)[C@@H](CC(=O)O)OC; X1 = C[C@@H](N*)[C@@H](O)c1ccccc1; NMeV = CN[C@H](C(=O)O)C(C)C

Columns and labels:
[1] = Human cancer clinical trials
[2] = tested on: CD30+ ALCL type tumor Karpas 299

## NS(=O)(=O)OC[C@H]1C[C@H](n2ccc3c(N[C@@H]4CCc5ccccc54)ncnc32)C[C@H]1O (stereo in doubt) [MLN4924, ((1R,2R,4S)-4-(4-(((R)-2,3-dihydro-1H-inden-1-yl)amino)-7H-pyrrolo[2,3-d]pyrimidin-7-yl)-2-hydroxycyclopentyl)methyl sulfamate]
[1]
  toxicity in clinical trials: toxic

## CC[C@H](C)[C@@H]([C@@H](CC(=O)N1CCC[C@H]1[C@H](OC)[C@@H](C)C(=O)N[C@H](C)[C@@H](O)c1ccccc1)OC)N(C)C(=O)[C@@H](NC(=O)[C@@H](NC)C(C)C)C(C)C [MMAE, monomethyl auristatin E] (H-[NMeV]V[Dil][Dolaproine]-X1)
[2]; ADC format, conjugated to an anti-CD30 antibody, drug to antibody ratio 2:1, MMAE dose 10 times lower than the free drug
  control of tumor growth: completely control tumor growth
[2]; free drug at maximal tolerated dose 0.3 mg/kg, compared with saline
  halt of tumor growth: only slightly better than saline
[2]; free drug, mice with human xenografted tumors
  maximal tolerated dose: 0.3 mg/kg
